From patent publication US20220074941A1, “HSP90 COMBINATION THERAPY” (Sloan-Kettering Institute for Cancer Research, priority 2011, published 2022)
Entries after “also recorded” stand apart in the source; their conditions may differ.

Experiments:
[1] = tested on: Hsp90 from SKBr3 cellular extracts; assay: Fluorescence polarization (FP) competition assay with GM-cy3B; format: binding; settings: FP competition with GM-cy3B, SKBr3 lysate, 4° C. for 24 h; read-out: IC50 (nM), binding affinity for Hsp90 from SKBr3 cellular extracts
From the text: The attachment of small molecules to a solid support is a very useful method to probe their target and the target's interacting partners. […] Perhaps the most crucial aspects in designing such chemical probes are determining the appropriate site for attachment of the small molecule ligand, and designing an appropriate linker between the molecule and the solid support. Our strategy to design Hsp90 chemical probes entails several steps. First, in order to validate the optimal linker length and its site of attachment to the Hsp90 ligand, the linker-modified ligand was docked onto an appropriate X-ray crystal structure of Hsp90α. Second, the linker-modified ligand was evaluated in a fluorescent polarization (FP) assay that measures competitive binding to Hsp90 derived from a cancer cell extract. […] These steps are important to ensure that the solid-support immobilized molecules maintain a strong affinity for Hsp90. Finally, the linker-modified small molecule was attached to the solid support, and its interaction with Hsp90 was validated by incubation with an Hsp90-containing cell extract.
Briefly, FP measurements were performed on an Analyst GT instrument (Molecular Devices, Sunnyvale, Calif.). […] Drugs were added in triplicate wells. […] The assay plate was incubated on a shaker at 4° C. for 24 h and the FP values in mP were measured. The fraction of tracer bound to Hsp90 was correlated to the mP value and plotted against values of competitor concentrations. […] All experimental data were analyzed using SOFTmax Pro 4.3.1 and plotted using Prism 4.0 (Graphpad Software Inc., San Diego, Calif.).

[2] = molecular target: T1, cell surface Hsp90 in MV4-11 leukemia cells (Homo sapiens, UniProt P07900); assay: Flow cytometry detection of cell surface Hsp90 with PU-H71-biotin; format: cell-based; settings: MV4-11 cells, 2 h at 37° C., SA-PE staining
T1 construct: specifically detect Hsp90 when expressed on the cell surface; endogenous in cells; host or cells: MV4-11 live cells
From the text: FIGS. 29a and 29b. A) Hsp90-containing protein complexes from the brains of JNPL3 mice, an Alzheimer's disease transgenic mouse model, isolated through chemical precipitation with beads containing a streptavidin-immobilized PU-H71-biotin construct or control streptavidin-immobilized D-biotin. Aberrant tau species are indicated by arrow. c1, c2 and s1, s2, cortical and subcortical brain homogenates, respectively, extracted from 6-month-old female JNPL3 mice (Right). Western blot analysis of brain lysate protein content (Left). B) Cell surface Hsp90 in MV4-11 leukemia cells as detected by PU-H71-biotin. The data are consistent with those obtained from multiple repeat experiments (n 2′: 2).
Cells were then analyzed using the BD-LSRII flow cytometer. Mean fluorescence intensity (MFI) was used to calculate the binding of PU-H71-biotin to cells and values were normalized to the MFI of untreated cells stained with SA-PE.

[3] = tested on: OCI-LYI, OCI-LY7, Farage and SUDHL6 DLBCL cells; assay: Combination of PU-H71 with SYK inhibitor in DLBCL cells; format: cell-based
DLBCL cell lines = settings: literature; cited from earlier work
K562 cells [4] = assay: Alamar Blue cell growth assay; format: cell-based; settings: K562, 72 h
Description: (§1) FIGS. 7a-7g. PU-H71 identified proteins and networks are those important for the malignant phenotype. (a) K562 cells were treated for 72 h with the indicated inhibitors and cell growth analyzed by the Alamar Blue assay. Data are presented as means±SD (n=3). (b) Sequential chemical-precipitations, as indicated, were conducted in K562 extracts with the PU-beads at the indicated frequency. Proteins in the pull-downs and in the remaining supernatant were analyzed by WB. (c) The effect of CARMI knock-down on cell viability using Tryptan blue (left) or Acridine orange/Ethidium bromide (right) stainings was evaluated in K562 cells. (d) The expression of select potential Hsp90-interacting proteins was analyzed by WB in K562 leukemia and Mia-PaCa-2 pancreatic cancer cells. […] Proteins in the pull-downs were analyzed by WB. (g) The effect of select inhibitors on Mia-PaCa-2 cell growth was analyzed as in panel (a).
(§2) Viability assessment in K562 cells untransfected or transfected with CARMI shRNA or scramble was performed using Trypan Blue. […] Apoptosis analysis was assessed using fluorescence microscopy by mixing 2 μL of acridine orange (100 μg/mL), 2 μL of ethidium bromide (100 μg/mL), and 20 μL of the cell suspension. A minimum of 200 cells was counted in at least five random fields. […] Results were analyzed using the Softmax Pro and the GraphPad Prism softwares. […]

Mia-PaCa-2 cells = assay: Alamar Blue cell growth assay; format: cell-based, human; settings: Mia-PaCa-2, 72 h
Description: as §1, §2

K562 cells [5] = assay: Western blot of proteins in treated K562 cells; format: cell-based; settings: PU-H71 5 μM or Gleevec 0.5 μM, time course
Description: FIGS. 5a-5f. […] (a) Hsp90 complexes in K562 extracts were isolated by precipitation with H9010, a non-specific IgG, or by PU-H71- or Control-beads. Control beads contain ethanolamine, an Hsp90-inert molecule. Proteins in pull-downs were analyzed by Western blot. (b,c) Single or sequential immuno- and chemical-precipitations, as indicated, were conducted in K562 extracts with H9010 and PU-beads at the indicated frequency and in the shown sequence. Proteins in the pull-downs and in the remaining supernatant were analyzed by WB. NS=non-specific. […] (e) Expression of proteins in Hsp70-knocked-down cells was analyzed by Western blot (left) and changes in protein levels presented in relative luminescence units (RLU) (right). Control=scramble siRNA. […] Proteins in the pull-downs and in the remaining supernatant were analyzed by Western blot. […]
FIGS. 8a-8h. […] Proteins in the pull-downs and in the remaining supernatant were analyzed by WB. […] Proteins were analyzed by WB (upper), quantified by densitometry and graphed against treatment time (lower). […] (f) Quantitative chromatin immunoprecipitation assays (QChIP) performed with STAT5 or Hsp90 antibodies vs. IgG control for two known STAT5 target genes (CCND2 and […]).
Protein concentrations were determined using BCA kit (Pierce) according to the manufacturer's instructions. […]

K562 CML cells = assay: Drug combination with PU-H71 in CML cells; format: cell-based
From the text: Since single agent therapy is not likely to be curative in cancer, it is necessary to design rational combinatorial therapy approaches. Proteomic identification of oncogenic Hsp90-scaffolded signaling networks may identify additional oncoproteins that could be further targeted using specific small molecule inhibitors.

DLBCL patients = settings: Phase II; cited from earlier work
[6] = tested on: patients with advanced pancreatic cancer; settings: cited from earlier work
[7] = tested on: HCC1937 breast cancer cells; assay: Clonogenic survival, combination with PU-H71; format: cell-based
From the text: (§3) Specifically, among the Hsp90-regulated pathways identified in the K562 CML cells, MDA-MB-468 breast cancer cells and the Mia-PaCa-2 pancreatic cancer cells are several involved in DNA damage, replication and repair response and/or homologous recombination (Tables 3, 5a-5f). Hsp90 inhibition may synergize or be additive with agents that act on DNA damage and/or homologous recombination (i.e. potentiate DNA damage sustained post treatment with IR/chemotherapy or other agents, such as PARP inhibitors that act on the proteins that are important for the repair of double-strand DNA breaks by the error-free homologous recombinational repair pathway).

[8] = tested on: MDA-MB-468 breast cancer cells; assay: Clonogenic survival, combination with PU-H71; format: cell-based; settings: MDA-MB-468, combination with PU-H71
From the text: as §3

Nc1ncnc2c1nc(Sc1cc3c(cc1I)OCO3)n2CCCNCCOCCOCCOCCNC(=O)CCCC[C@@H]1SC[C@@H]2NC(=O)N[C@@H]21 [Compound 7]
IC50 [1]: 67.1 nM | detection of Hsp90 on the cell surface [2]: can detect Hsp90 expression on the surface of leukemia cells

COc1cc(Nc2ncc(F)c(Nc3ccc4c(n3)NC(=O)C(C)(C)O4)n2)cc(OC)c1OC [Compound R406]
efficacy of combination with PU-H71 versus each inhibitor alone [3]: synergizes; also recorded: more efficacious | effect on DLBCL cell lines (DLBCL cell lines): blocks proliferation and induces apoptosis

Cc1ccc(NC(=O)c2ccc(CN3CCN(C)CC3)cc2)cc1Nc1nccc(-c2cccnc2)n1 [Gleevec]
effect on cell growth (K562 cells [4]): toxic only to K562 cells | effect on cell growth (Mia-PaCa-2 cells): toxic only to K562 cells | STAT5 phosphorylation (p-STAT5 levels) (K562 cells [5]): rapidly decreased

COc1ccc(S(=O)(=O)N(CCO)c2ccccc2CN(C)C/C=C/c2ccc(Cl)cc2)cc1 [KN93]
drug interaction with Hsp90 inhibitor PU-H71 (K562 CML cells): synergize

CC(C)n1nc(-c2cc3cc(O)ccc3[nH]2)c2c(N)ncnc21 [PP242]
effect on cell growth (K562 cells [4]): toxic to both cells | effect on cell growth (Mia-PaCa-2 cells): toxic to both cells

CO[C@H]1C[C@@H]2CC[C@@H](C)[C@@](O)(O2)C(=O)C(=O)N2CCCC[C@H]2C(=O)O[C@H]([C@H](C)C[C@@H]2CC[C@@H](OCCO)[C@H](OC)C2)CC(=O)[C@H](C)/C=C(\C)[C@@H](O)[C@@H](OC)C(=O)[C@H](C)C[C@H](C)/C=C/C=C/C=C/1C [everolimus]
ORR (DLBCL patients): 35%

Nc1ccn([C@@H]2O[C@H](CO)[C@@H](O)C2(F)F)c(=O)n1 [gemcitabine]
median survival [6]: approximately 6 months

O=C(c1cc(Cc2n[nH]c(=O)c3ccccc23)ccc1F)N1CCN(C(=O)C2CC2)CC1 [olaparib]
drug interaction with PU-H71 in inhibiting clonogenic survival [7]: synergizes | drug interaction with PU-H71 in inhibiting clonogenic survival [8]: synergizes
